Data: US20190382396A1, “SALTS OF BICYCLO[1.1.1]PENTANE INHIBITORS OF DUAL LEUCINE ZIPPER (DLK) KINASE FOR THE TREATMENT OF DISEASE” (Board of Regents, The University of Texas System, priority 2018, published 2019)
In brackets after ≈: the same amount, converted by molar mass. Read-outs that look alike come from different tables or passages of the source.

Legend:
Type in all cases: physicochemical
[1] = Thermogravimetric analysis / DSC weight loss; conditions: <120° C.
Procedure: Differential scanning calorimetry (“DSC”) was performed with a TA Q2000 instrument, using approx 1 mg of sample in a crimped Al pan, heating from room temperature to 300° C. at a rate of 10° C./min.
Thermogravimetric analysis (“TGA”) was performed with a TA Q5000 instrument, using approx 2-5 mg of sample in an open Pt pan, heating from room temperature to 300° C. at a rate of 10° C./min.

[2] = Solubility of the Example 1 compound in organic solvents; conditions: thermodynamic from solid; for solubility at 2 h: 25 °C, RT; for solubility: 50° C.
Procedure: Solubility of the Example 1 compound in various organic solvents was determined by the following procedure. […] The mixture was stirred at 800 rpm at 25° C. for 2 hr. If the compound was not dissolved completely by this time, the temperature was then raised to 50° C. and stirring at 800 rpm was continued overnight. If a solid precipitate was present, the solid precipitate was then removed by centrifugation (14,000 RPM, 5 min) and dried under vacuum at 30° C. (Method I). If a solid precipitate was not present, the solvent was removed by evaporation under vacuum at 30° C. (Method II). In either case, the resulting material was evaluated by XRPD.

[3] = Dynamic vapor sorption (DVS), hygroscopicity
Procedure: Dynamic vapor sorption (“DVS”) was performed at 25° C., using approx 10-15 mg of sample and N2 gas at a flow rate of 200 mL/min, dm/dt=0.01% min, minimum dm/dt stability duration of 10 min, max equilibration time of 180 min, drying at 0% RH for 120 min, scanning from 0% RH to 90% RH to 0% RH with a step size of 10% RH.
Total cycling time varied, but in all cases was about 200-250 min.

[4] = Solubility in physiologically relevant solutions (SGF, FaSSIF, FeSSIF); conditions: 25±0.5° C.; for solubility at 24 h: 25 °C, thermodynamic from solid
Procedure: Solubility of the free base 1 and the selected salts 8, 9, 10, and 11 in physiologically relevant solutions were examined. For each material, aliquots were added to 2 ml vials containing 500 uL of either SGF, FaSSIF, or FeSSIF, which were then sealed. The mixtures were kept shaking by thermomixer at 700 rpm, 25±0.5° C. for 24 h to facilitate the dissolution and then centrifuged by 96-well plates at 3000 rpm for 2 min. The filter liquors were diluted with diluents (ACN/water, 50/50) and analyzed by HPLC.

[5] = Stability (50° C., 40° C./75% RH, light; 1 week); conditions: for XRPD change? / purity: bulk, 1 week
Procedure: The stability of the free base 1 and the selected salts 8, 9, 10, and 11 was evaluated. For each material, aliquots were set up at each of conditions (50° C., 40° C./75% RH, light) at given time points (initial and 1 week). PXRD diffractograms of the hydrogen fumarate salt 11 is shown in FIG. 17, with trace (a) showing the initial salt, trace (b) showing the salt after light treatment, trace (c) showing the salt after storage at 40° C. and 75% relative humidity for 1 week, and (d) showing the salt after storage at 50° C. for 1 week.

[6] = aqueous with cosolvent or surfactant or cyclodextrin, 1/1 (v/v) Acetone/H2O
[7] = aqueous with cosolvent or surfactant or cyclodextrin, 1/1 (v/v) EtOH/H2O
[8] = organic solvent or mixture, ACN
[9] = organic solvent or mixture, EtOH
[10] = organic solvent or mixture, Heptane
[11] = organic solvent or mixture, MTBE
[12] = organic solvent or mixture, Toluene

SMILES: CC(C)c1nc(-c2cnc(N)c(OC(F)(F)F)c2)cn1C12CC(N3CCOCC3)(C1)C2 [Example 1, 5-(2-isopropyl-1-(3-morpholinobicyclo[1.1.1]pentan-1-yl)-1H-imidazol-4-yl)-3-(trifluoromethoxy)pyridin-2-amine]
- weight loss (TGA, %) [1]: 0.29% (<120° C.)
- solubility at 2 h [2, 6]: < 50 mg/mL
- solubility at 2 h [2, 7]: < 50 mg/mL
- solubility at 2 h [2, 8]: < 50 mg/mL
- solubility at 2 h ([2]; organic solvent or mixture, Acetone): > 50 mg/mL
- solubility at 2 h ([2]; organic solvent or mixture, DCM): > 50 mg/mL
- solubility at 2 h ([2]; organic solvent or mixture, DMF): > 50 mg/mL
- solubility at 2 h ([2]; organic solvent or mixture, DMSO): > 50 mg/mL
- solubility at 2 h ([2]; organic solvent or mixture, Dioxane): > 50 mg/mL
- solubility at 2 h ([2]; organic solvent or mixture, EtOAc): > 50 mg/mL
- solubility at 2 h [2, 9]: < 50 mg/mL
- solubility at 2 h [2, 10]: < 50 mg/mL
- solubility at 2 h ([2]; organic solvent or mixture, IPA): > 50 mg/mL
- solubility at 2 h ([2]; organic solvent or mixture, MEK): > 50 mg/mL
- solubility at 2 h [2, 11]: < 50 mg/mL
- solubility at 2 h ([2]; organic solvent or mixture, MeOH): > 50 mg/mL
- solubility at 2 h ([2]; organic solvent or mixture, THF): > 50 mg/mL
- solubility at 2 h [2, 12]: < 50 mg/mL
- solubility [2, 6]: < 50 mg/mL
- solubility [2, 7]: < 50 mg/mL
- solubility [2, 8]: > 50 mg/mL
- solubility [2, 9]: > 50 mg/mL
- solubility [2, 10]: < 50 mg/mL
- solubility [2, 11]: < 50 mg/mL
- solubility [2, 12]: < 50 mg/mL
- solubility at 2 h ([2]; water, H2O): < 50 mg/mL
- solubility ([2]; water, H2O): < 50 mg/mL
- Hygroscopicity (0-40% RH) ([3]; DVS, 25° C., 0-40% RH): 0.11%
- Hygroscopicity (0-90% RH) ([3]; DVS, 25° C., 0-90% RH): 2.44%
- Hygroscopicity; form change ([3]; form change after DVS): no change
- solubility at 24 h ([4]; simulated gastric fluid, SGF, read-out: Solubility SGF Conc): 4.56 mg/mL (≈ 10.4 mM)
- solubility at 24 h ([4]; FaSSIF, read-out: Solubility FaSSIF Conc): 0.0713 mg/mL (≈ 0.163 mM)
- solubility at 24 h ([4]; FeSSIF, read-out: Solubility FeSSIF Conc): 0.473 mg/mL (≈ 1.08 mM)
- FaSSIF pH after 24 h ([4]; FaSSIF): 6.48
- FeSSIF pH after 24 h ([4]; FeSSIF): 5.00
- SGF pH after 24 h ([4]; SGF): 3.83
- XRPD change? ([5]; 40° C., 75% RH): yes
- purity ([5]; 40° C., 75% RH): 99.66%
- XRPD change? ([5]; 50° C.): yes
- purity ([5]; 50° C.): 99.41%
- initial purity ([5]; initial (before storage)): 99.59%
- XRPD change? ([5]; light): yes (1)
- purity ([5]; light): 96.61%
